The record followed here is patent publication US20250353852A1, “COMPOUNDS AND COMPOSITIONS THAT INHIBIT PIKFYVE” (Kineta, Inc., priority 2021, published 2025).

Sequence of full-length human PIKFYVE (Q9Y2I7 whole entry S696N/L932S/Q995L/T998S/S1033A/Q1183K, the tested form may be a part): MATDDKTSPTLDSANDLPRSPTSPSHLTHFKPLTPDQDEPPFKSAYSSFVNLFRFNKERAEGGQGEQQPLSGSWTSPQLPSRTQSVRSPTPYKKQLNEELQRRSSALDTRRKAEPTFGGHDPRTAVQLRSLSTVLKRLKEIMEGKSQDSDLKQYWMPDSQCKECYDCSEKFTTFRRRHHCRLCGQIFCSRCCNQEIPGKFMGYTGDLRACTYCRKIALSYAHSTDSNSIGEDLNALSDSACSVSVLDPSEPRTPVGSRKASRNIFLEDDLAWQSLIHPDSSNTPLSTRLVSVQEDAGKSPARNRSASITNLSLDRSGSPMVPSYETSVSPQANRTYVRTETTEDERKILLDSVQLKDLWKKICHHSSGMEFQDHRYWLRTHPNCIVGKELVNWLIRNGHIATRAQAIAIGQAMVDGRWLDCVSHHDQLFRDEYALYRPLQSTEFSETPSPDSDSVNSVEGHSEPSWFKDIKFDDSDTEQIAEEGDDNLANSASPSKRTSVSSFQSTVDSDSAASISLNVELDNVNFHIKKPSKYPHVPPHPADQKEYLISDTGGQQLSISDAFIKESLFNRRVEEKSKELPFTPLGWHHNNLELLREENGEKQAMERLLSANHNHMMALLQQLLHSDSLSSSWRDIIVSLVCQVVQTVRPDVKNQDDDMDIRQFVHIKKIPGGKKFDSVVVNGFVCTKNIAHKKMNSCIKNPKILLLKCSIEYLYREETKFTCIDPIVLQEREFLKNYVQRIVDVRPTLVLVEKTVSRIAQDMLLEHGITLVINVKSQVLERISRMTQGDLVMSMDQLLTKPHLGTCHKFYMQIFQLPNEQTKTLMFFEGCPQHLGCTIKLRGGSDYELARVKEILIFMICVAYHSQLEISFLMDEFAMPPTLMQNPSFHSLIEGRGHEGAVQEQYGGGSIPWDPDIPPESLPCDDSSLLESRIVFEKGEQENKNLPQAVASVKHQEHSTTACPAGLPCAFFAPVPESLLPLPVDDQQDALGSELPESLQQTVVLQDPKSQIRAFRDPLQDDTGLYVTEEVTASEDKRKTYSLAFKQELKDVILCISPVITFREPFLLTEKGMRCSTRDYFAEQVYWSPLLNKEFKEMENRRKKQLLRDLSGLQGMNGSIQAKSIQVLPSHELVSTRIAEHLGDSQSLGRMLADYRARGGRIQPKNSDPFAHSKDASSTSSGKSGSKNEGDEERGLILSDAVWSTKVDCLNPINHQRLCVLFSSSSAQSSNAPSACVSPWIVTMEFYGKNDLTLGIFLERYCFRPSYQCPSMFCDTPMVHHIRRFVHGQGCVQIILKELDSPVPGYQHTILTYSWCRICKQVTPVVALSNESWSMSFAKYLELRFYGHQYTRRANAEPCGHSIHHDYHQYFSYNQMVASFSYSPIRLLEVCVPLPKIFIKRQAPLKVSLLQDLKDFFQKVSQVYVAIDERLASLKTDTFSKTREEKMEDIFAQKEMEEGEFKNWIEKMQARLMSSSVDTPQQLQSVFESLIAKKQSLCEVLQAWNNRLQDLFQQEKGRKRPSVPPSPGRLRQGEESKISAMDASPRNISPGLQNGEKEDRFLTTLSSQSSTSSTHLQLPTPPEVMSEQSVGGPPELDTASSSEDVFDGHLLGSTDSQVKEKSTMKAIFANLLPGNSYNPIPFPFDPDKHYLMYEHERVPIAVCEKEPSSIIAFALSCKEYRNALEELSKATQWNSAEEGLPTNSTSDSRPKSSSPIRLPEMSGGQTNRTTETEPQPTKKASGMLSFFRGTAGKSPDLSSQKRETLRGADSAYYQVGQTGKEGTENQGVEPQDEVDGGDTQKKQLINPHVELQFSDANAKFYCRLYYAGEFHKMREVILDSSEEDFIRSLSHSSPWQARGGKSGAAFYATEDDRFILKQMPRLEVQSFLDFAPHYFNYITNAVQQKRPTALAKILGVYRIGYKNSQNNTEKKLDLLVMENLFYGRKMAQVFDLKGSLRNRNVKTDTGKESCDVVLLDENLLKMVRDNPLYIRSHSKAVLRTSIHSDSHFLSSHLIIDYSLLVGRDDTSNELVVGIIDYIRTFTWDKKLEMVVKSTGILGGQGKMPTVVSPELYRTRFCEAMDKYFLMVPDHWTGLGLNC

The experiment addresses full-length human PIKFYVE (Homo sapiens (Human), UniProt Q9Y2I7, L932S/Q1183K/Q995L/S1033A/S696N/T998S). The experiment in a line: PIKfyve biochemical assay (ADP-Glo Kinase assay, Carna Biosciences). Particulars: class symbols. An excerpt:
PIKfyve Biochemical Assay. The biochemical […] inhibition assays were run by Carna Biosciences according to proprietary methodology based on the Promega […] Kinase assay. […] NP_055855.2] was expressed as N-terminal GST-fusion protein (265 kDa) using baculovirus expression system. GST-PIKFYVE was purified by using glutathione sepharose chromatography and used in an ADP-GloTM Kinase assay (Promega). Reactions were set up by adding the test compound solution, substrate solution, ATP solution and kinase solution, each at 4× final concentrations. Reactions were prepared with assay buffer (50 mM MOPS, 1 mM DTT, pH7.2), mixed, and incubated in black 384 well polystyrene plates for 1 hour at room temperature. ADP-Glo^TM reagent was then added for 40 minutes, followed by kinase detection reagent for an additional 40 minutes. The kinase activity was evaluated by detecting relative light units on a luminescence plate reader. […] IC50 values were calculated from concentration vs % inhibition curves by fitting to a four-parameter logistic curve. […] The biochemical […] inhibition assays were run by Carna Biosciences according to proprietary methodology based on the Promega ADP-GloTM Kinase assay. […] GST-PIKFYVE was purified by using glutathione sepharose chromatography and used in an ADP-GIoTM Kinase assay (Promega). Reactions were set up by adding the test compound solution, substrate solution, ATP solution and kinase solution, each at 4× final concentrations. Reactions were prepared with assay buffer (50 mM MOPS, 1 mM DTT, pH7.2), mixed, and incubated in black 384 well polystyrene plates for 1 hour at room temperature. ADP-GIoTM reagent was then added for 40 minutes, followed by kinase detection reagent for an additional 40 minutes. The kinase activity was evaluated by detecting relative light units on a luminescence plate reader. […] IC50 values were calculated from concentration vs % inhibition curves by fitting to a four-parameter logistic curve. […] The same compounds were also tested in both FAB1 and PIKFYVE TDP-43 yeast models.
A general note: ADP-Glo first removes unused ATP, then detects ADP through luciferase.
A word on the IC50: it is the concentration that inhibits the measured activity by half. Read a high IC50 as weaker potency. `OCC1(c2ccn(-c3cc(N4CCOCC4)n4nc(-c5ccncc5)cc4n3)n2)CC1` [Compound 82, (1-(1-(7-morpholino-2-(pyridin-4-yl)pyrazolo[1,5-a]pyrimidin-5-yl)-1H-pyrazol-3-yl)cyclopropyl)methanol] displayed an IC50 of 0.1 to 1 µM. In turn, `COCC1(c2ccn(-c3cc(N4CCOCC4)n4nc(-c5ccncc5)cc4n3)n2)CC1` [Compound 83, 4-(5-(3-(1-(methoxymethyl)cyclopropyl)-1H-pyrazol-1-yl)-2-(pyridin-4-yl)pyrazolo[1,5-a]pyrimidin-7-yl)morpholine] returned an IC50 of 0.1 to 1 µM. `CC1(CCc2ccn(-c3cc(N4CCOCC4)n4nc(-c5ccncc5)cc4n3)n2)CC1` [Compound 84, 4-(5-(3-(2-(1-methylcyclopropyl)ethyl)-1H-pyrazol-1-yl)-2-(pyridin-4-yl)pyrazolo[1,5-a]pyrimidin-7-yl)morpholine]: the IC50 is 1 to 10 µM. Next, `c1cc(-c2cc3nc(-n4cc5c(n4)CCCC5)cc(N4CCOCC4)n3n2)ccn1` [Compound 85, 4-(2-(pyridin-4-yl)-5-(4,5,6,7-tetrahydro-2H-indazol-2-yl)pyrazolo[1,5-a]pyrimidin-7-yl)morpholine]: 0.1 to 1 µM; `c1cc(-c2cc3nc(-n4ncc5c4CCCC5)cc(N4CCOCC4)n3n2)ccn1` [Compound 86, 4-(2-(pyridin-4-yl)-5-(4,5,6,7-tetrahydro-1H-indazol-1-yl)pyrazolo[1,5-a]pyrimidin-7-yl)morpholine]: 1 to 10 µM; `c1cc(-c2cc3nc(-n4cc5c(n4)COCC5)cc(N4CCOCC4)n3n2)ccn1` [Compound 87, 2-(7-morpholino-2-(pyridin-4-yl)pyrazolo[1,5-a]pyrimidin-5-yl)-2,4,5,7-tetrahydropyrano[3,4-c]pyrazole]: 1 to 10 µM. Compound `c1cc(-c2cc3nc(-n4cc5c(n4)CCOC5)cc(N4CCOCC4)n3n2)ccn1` [Compound 89, 2-(7-morpholino-2-(pyridin-4-yl)pyrazolo[1,5-a]pyrimidin-5-yl)-2,4,6,7-tetrahydropyrano[4,3-c]pyrazole] had an IC50 of 0.1 to 1 µM. For `c1ccc(-c2ccn(-c3cc(N4CCOCC4)n4nc(C5CCCO5)cc4n3)n2)cc1` (stereo not shown) [Compound 90, 4-(5-(3-phenyl-1H-pyrazol-1-yl)-2-(tetrahydrofuran-2-yl)pyrazolo[1,5-a]pyrimidin-7-yl)morpholine], the IC50 is 0.01 to 0.1 µM.

The compound `c1cncc(-c2ccn(-c3cc(N4CCOCC4)n4nc(C5CCCO5)cc4n3)n2)c1` (stereo not shown) [Compound 92, 4-(5-(3-(pyridin-3-yl)-1H-pyrazol-1-yl)-2-(tetrahydrofuran-2-yl)pyrazolo[1,5-a]pyrimidin-7-yl)morpholine] registered an IC50 of 1 to 10 µM. Turning to `COc1cccc(-c2ccn(-c3cc(N4CCOCC4)n4nc(C5CCCO5)cc4n3)n2)c1` (stereo not shown) [Compound 93, 4-(5-(3-(3-methoxyphenyl)-1H-pyrazol-1-yl)-2-(tetrahydrofuran-2-yl)pyrazolo[1,5-a]pyrimidin-7-yl)morpholine], the IC50 was 0.01 to 0.1 µM. The compound `Fc1cccc(-c2ccn(-c3cc(N4CCOCC4)n4nc(C5CCCO5)cc4n3)n2)c1` (stereo not shown) [Compound 94, 4-(5-(3-(3-fluorophenyl)-1H-pyrazol-1-yl)-2-(tetrahydrofuran-2-yl)pyrazolo[1,5-a]pyrimidin-7-yl)morpholine] yielded an IC50 of 0.1 to 1 µM.

Compound `c1cn(-c2cc(N3CCOCC3)n3nc(C4CCCO4)cc3n2)nc1C1CCOCC1` (stereo not shown) [Compound 95, 4-(5-(3-(tetrahydro-2H-pyran-4-yl)-1H-pyrazol-1-yl)-2-(tetrahydrofuran-2-yl)pyrazolo[1,5-a]pyrimidin-7-yl)morpholine] showed an IC50 of more than 10 µM. For `c1ccc(-n2ccc(-c3cc(N4CCOCC4)n4nc(C5CCCO5)cc4n3)n2)cc1` (stereo not shown) [Compound 96, 4-(5-(1-phenyl-1H-pyrazol-3-yl)-2-(tetrahydrofuran-2-yl)pyrazolo[1,5-a]pyrimidin-7-yl)morpholine], the IC50 is 0.1 to 1 µM. In the case of `c1ccc(-c2ccn(-c3cc(N4CCOCC4)n4nc(C5CCOCC5)cc4n3)n2)cc1` [Compound 98, 4-(5-(3-phenyl-1H-pyrazol-1-yl)-2-(tetrahydro-2H-pyran-4-yl)pyrazolo[1,5-a]pyrimidin-7-yl)morpholine] it was 0.1 to 1 µM; in that of `c1c(-n2cc3c(n2)CCOC3)nc2cc(C3CCCO3)nn2c1N1CCOCC1` (stereo not shown) [Compound 99, 2-(7-morpholino-2-(tetrahydrofuran-2-yl)pyrazolo[1,5-a]pyrimidin-5-yl)-2,4,6,7-tetrahydropyrano[4,3-c]pyrazole], more than 10 µM.

As for `c1nn(-c2cc(N3CCOCC3)n3nc(C4CCCO4)cc3n2)c2c1COCC2` (stereo not shown) [Compound 100, 1-(7-morpholino-2-(tetrahydrofuran-2-yl)pyrazolo[1,5-a]pyrimidin-5-yl)-1,4,6,7-tetrahydropyrano[4,3-c]pyrazole], the IC50 was more than 10 µM. `NC(=O)c1cc(N2CCOCC2)n2nc(-c3ccncc3)cc2n1` [Compound 102, 7-morpholino-2-(pyridin-4-yl)pyrazolo[1,5-a]pyrimidine-5-carboxamide] showed an IC50 of 1 to 10 µM.

`N#Cc1cc(N2CCOCC2)n2nc(-c3ccncc3)cc2n1` [Compound 103, 7-morpholino-2-(pyridin-4-yl)pyrazolo[1,5-a]pyrimidine-5-carbonitrile]: the IC50 was more than 10 µM.

Compound `O=C(/C=C/c1cc(N2CCOCC2)n2nc(-c3ccncc3)cc2n1)c1ccccc1` [Compound 109, (E)-3-(7-morpholino-2-(pyridin-4-yl)pyrazolo[1,5-a]pyrimidin-5-yl)-1-phenylprop-2-en-1-one] had an IC50 of 1 to 10 µM. `c1ccc(C2CC(c3cc(N4CCOCC4)n4nc(-c5ccncc5)cc4n3)CN2)cc1` (stereo not shown) [Compound 112, 4-(5-(5-phenylpyrrolidin-3-yl)-2-(pyridin-4-yl)pyrazolo[1,5-a]pyrimidin-7-yl)morpholine] had an IC50 of 1 to 10 µM. On to `O=C(CCCc1cc(N2CCOCC2)n2nc(-c3ccncc3)cc2n1)c1ccccc1` [Compound 113, 4-(7-morpholino-2-(pyridin-4-yl)pyrazolo[1,5-a]pyrimidin-5-yl)-1-phenylbutan-1-one], for which the IC50 lay in the range of 0.1 to 1 µM.

Compound `O=C(/C=C/c1ccccc1)c1cc(N2CCOCC2)n2nc(-c3ccncc3)cc2n1` [Compound 114, 1-(7-morpholino-2-(pyridin-4-yl)pyrazolo[1,5-a]pyrimidin-5-yl)-3-phenylprop-2-en-1-one] showed an IC50 of 1 to 10 µM. Next, `CC(C)(C)OC(=O)NC(=N)c1cc(N2CCOCC2)n2nc(-c3ccncc3)cc2n1` [Compound 115, tert-butyl imino(7-morpholino-2-(pyridin-4-yl)pyrazolo[1,5-a]pyrimidin-5-yl)methylcarbamate]: 0.1 to 1 µM; `CC(C)(C)OC(=O)N1CCN(c2cc(N3CCOCC3)n3nc(-c4ccncc4)cc3n2)C(Cc2ccccc2)C1` (stereo not shown) [Compound 116, tert-butyl 3-benzyl-4-(7-morpholino-2-(pyridin-4-yl)pyrazolo[1,5-a]pyrimidin-5-yl)piperazine-1-carboxylate]: 1 to 10 µM; `c1ccc(CC2CNCCN2c2cc(N3CCOCC3)n3nc(-c4ccncc4)cc3n2)cc1` (stereo not shown) [Compound 117, 4-(5-(2-benzylpiperazin-1-yl)-2-(pyridin-4-yl)pyrazolo[1,5-a]pyrimidin-7-yl)morpholine]: 1 to 10 µM.

Take `CN1CCN(c2cc(N3CCOCC3)n3nc(-c4ccncc4)cc3n2)C(Cc2ccccc2)C1` (stereo not shown) [Compound 118, 4-(5-(2-benzyl-4-methylpiperazin-1-yl)-2-(pyridin-4-yl)pyrazolo[1,5-a]pyrimidin-7-yl)morpholine]: the IC50 lay in the range of 1 to 10 µM. `c1ccc(N2CC(c3cc(N4CCOCC4)n4nc(-c5ccncc5)cc4n3)C2)cc1` [Compound 121, 4-(5-(1-phenylazetidin-3-yl)-2-(pyridin-4-yl)pyrazolo[1,5-a]pyrimidin-7-yl)morpholine] displayed an IC50 of more than 10 µM. Turning to `c1ccc(CN2CCCC2c2cc(N3CCOCC3)n3nc(-c4ccncc4)cc3n2)cc1` (stereo not shown) [Compound 124, 4-(5-(1-benzylpyrrolidin-2-yl)-2-(pyridin-4-yl)pyrazolo[1,5-a]pyrimidin-7-yl)morpholine], the IC50 fell in the range of 1 to 10 µM. The compound `Cc1cccc(C(=O)COc2cc(N3CCOCC3)n3nc(-c4ccncc4)cc3n2)c1` [Compound 125, 2-((7-morpholino-2-(pyridin-4-yl)pyrazolo[1,5-a]pyrimidin-5-yl)oxy)-1-(m-tolyl)ethan-1-one] registered a concentration for half-maximal inhibition (IC50) of 1 to 10 µM.

In the case of `CNC(COc1cc(N2CCOCC2)n2nc(-c3ccncc3)cc2n1)c1cccc(C)c1` (stereo not shown) [Compound 126, N-methyl-2-((7-morpholino-2-(pyridin-4-yl)pyrazolo[1,5-a]pyrimidin-5-yl)oxy)-1-(m-tolyl)ethan-1-amine], the 50% inhibitory concentration (IC50) lay in the range of 1 to 10 µM.

For the compound `c1ccc(-c2nsc(-c3cc(N4CCOCC4)n4nc(-c5ccncc5)cc4n3)n2)cc1` [Compound 127, 4-(5-(3-phenyl-1,2,4-thiadiazol-5-yl)-2-(pyridin-4-yl)pyrazolo[1,5-a]pyrimidin-7-yl)morpholine], the IC50 was in the range of 0.01 to 0.1 µM.
